According to publication PMC4710668, “Bioactivation of food genotoxicants 5-hydroxymethylfurfural and furfuryl alcohol by sulfotransferases from human, mouse and rat: a comparative study” (Archives of Toxicology, 2014):

Legend:
Assay in all cases: FFA sulfoconjugation assay (N6-MF-A formation with adenosine as scavenger)
Type in all cases: biochemical
[1] = biological target: T1, hSULT2B1b (Homo sapiens, UniProt O00204)
T1 construct: made in house; host or cells: Salmonella typhimurium TA1538 (cytosolic fraction, not purified)
T1 sequence (O00204 1-365): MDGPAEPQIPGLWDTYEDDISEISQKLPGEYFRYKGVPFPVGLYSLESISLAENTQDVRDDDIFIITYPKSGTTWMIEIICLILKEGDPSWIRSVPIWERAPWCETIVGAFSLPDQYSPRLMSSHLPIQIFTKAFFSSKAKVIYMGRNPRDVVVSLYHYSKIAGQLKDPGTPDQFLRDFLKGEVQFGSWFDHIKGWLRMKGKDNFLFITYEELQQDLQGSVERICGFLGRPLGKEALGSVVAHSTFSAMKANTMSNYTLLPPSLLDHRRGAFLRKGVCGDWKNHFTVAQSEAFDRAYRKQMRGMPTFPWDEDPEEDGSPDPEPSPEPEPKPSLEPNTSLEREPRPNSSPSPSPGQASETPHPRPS
Procedure: (§1) Cytosolic fractions containing individual SULT forms were prepared from transgenic S. typhimurium TA1538. Table S1 in the Supplementary Material provides a summary of the thirty SULTs used in the current study together with references describing the cloning of the respective S. typhimurium TA1538 strains. The expressed SULT forms are denoted with the prefixes h, m and r for human, mouse and rat enzymes, respectively. Bacteria were grown in Luria Broth medium containing ampicillin (100 µg/ml) by stirring for 8 h at 200 revolutions/min at 37 °C. The bacterial suspensions were centrifuged at 5,000 g for 10 min. The sediments were washed twice with 25 ml of 10 mM potassium phosphate buffer (pH 7.4)/50 mM potassium chloride (KCP buffer) and centrifuged again. The pellets were taken up in 800 µl KCP buffer and sonicated thrice for 15 s with 30 s pauses in between. The soluble fraction was attained by centrifuging for 1 h at 100,000 g. The supernatants (in the following termed cytosolic preparations) were frozen at −80 °C. The protein concentrations were determined according to a bicinchoninic acid (BCA) assay protocol. The SULT concentrations in the cytosolic preparations were estimated after electrophoretic separation and immunodetection using inclusion bodies of different SULT forms as standards (Teubner et al. [2007]). The preparation of SULT inclusion bodies and the immunodetection of SULTs is described in the Supplementary Material, which also contains a representative immunoblot of different amounts of rSult1a1standard and a cytosolic preparation of S. typhimurium expressing rSult1a1 (Fig. S1).
(§2) The reaction mixtures were prepared as described for HMF. In addition, they contained 10 mM adenosine as a nucleophilic scavenger. Following incubation for 20 min at 37 °C, sulfoconjugation reactions were stopped by adding 100 µl cold methanol containing 175 fmol of [^15N5]N ^6-MF-A as the internal standard, mixed and centrifuged at 15,000 g for 10 min. The clear supernatants were subjected to UPLC-MS/MS analyses. Incubations were performed as quadruplicates. At higher concentrations, FFA reacts spontaneously with adenosine at low, but detectable, levels. To correct for the SULT-independent adduct formation, mixtures with SULT-deficient cytosols were carried along simultaneously in duplicate. Controls were subtracted from the experimental samples.
(§3) The ribonucleoside adduct N ^6-((furan-2-yl)methyl)-adenosine (N ^6-MF-A) was analyzed by isotope-dilution UPLC-MS/MS with the same system described above using a HSS T3 column (1.8 µm, 2.1 × 100 mm, Waters). Samples of 8 µl were eluted with 10 mM ammonium bicarbonate buffer, pH 8.0 (A) and methanol (B) using an 6-min gradient from 98 % solvent A to 15 % solvent A at 0.35 ml/min flow rate (Yin et al. [2013]). The electrospray interface of the mass spectrometer operated in the positive ion mode. The fragmentations of N ^6-MF-A into the aglycone cation [N ^6-((furan-2-yl)methyl)-adenine-H]^+ (m/z = 348.1 → 216.1), the cleavage of the 2-methylfuranyl cation (m/z = 348.1 → 81.0) and the release of [N ^6-methyl-adenine-H]^+ (m/z = 348.1 → 148.0) were monitored together with the corresponding fragmentations of the isotope-labeled internal standard [^15N5]N ^6-MF-A for the formation of the aglycone (m/z = 353.1 → 221.1), the 2-methylfuran cation (m/z = 353.1 → 81.0) and ^15N5-labeled N ^6-methyl-adenine (m/z = 353.1 → 153.0). The N ^6-MF-A content of the incubation mixture was calculated from the ratio of peak areas resulting from the total ion current of all three MRM signals of the analyte. For the fragmentation of N ^6-MF-A ([^15N5]N ^6-MF-A), collision energies were 20, 25 and 35 eV for the transitions m/z = 348.1 → 216.1 (m/z = 353.1 → 221.1), m/z = 348.1 → 148.0 (m/z = 353.1 → 153.0) and m/z = 348.1 → 81.0 (m/z = 353.1 → 81.0), respectively. […]

[2] = biological target: T2, hSULT4A1 (Homo sapiens, UniProt Q9BR01)
T2 construct: made in house; host or cells: Salmonella typhimurium TA1538 (cytosolic fraction, not purified)
T2 sequence (Q9BR01 1-284): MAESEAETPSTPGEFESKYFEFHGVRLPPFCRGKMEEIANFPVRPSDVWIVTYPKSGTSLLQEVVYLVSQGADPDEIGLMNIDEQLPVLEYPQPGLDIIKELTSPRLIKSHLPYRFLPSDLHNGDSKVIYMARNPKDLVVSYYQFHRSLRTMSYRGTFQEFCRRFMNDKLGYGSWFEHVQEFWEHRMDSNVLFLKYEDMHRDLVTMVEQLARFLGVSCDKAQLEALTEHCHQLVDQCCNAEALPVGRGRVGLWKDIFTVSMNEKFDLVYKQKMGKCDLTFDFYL
Procedure: as §1, §2, §3

[3] = biological target: T3, mSult2a1 (Mus musculus, UniProt P52843)
T3 construct: made in house; host or cells: Salmonella typhimurium TA1538 (cytosolic fraction, enzyme not purified)
T3 sequence (P52843 1-285): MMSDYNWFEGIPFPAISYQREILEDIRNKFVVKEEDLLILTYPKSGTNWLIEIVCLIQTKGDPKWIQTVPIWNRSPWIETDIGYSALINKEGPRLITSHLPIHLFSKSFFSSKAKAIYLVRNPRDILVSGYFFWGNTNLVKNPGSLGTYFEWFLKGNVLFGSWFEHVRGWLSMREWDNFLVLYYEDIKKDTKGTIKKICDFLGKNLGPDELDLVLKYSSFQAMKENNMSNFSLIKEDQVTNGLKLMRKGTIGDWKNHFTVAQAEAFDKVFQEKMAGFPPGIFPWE
Procedure: as §1, §2, §3

SMILES: OCc1ccco1 [FFA, furfuryl alcohol]
- Rate of N6-MF-A formation ([1]; 0.1 mM FFA): <18 fmol N ^6-MF-A/mg/min
- Rate of N6-MF-A formation ([1]; 1 mM FFA): <20 fmol N ^6-MF-A/mg/min
- Rate of N6-MF-A formation ([1]; 10 mM FFA): <44 fmol N ^6-MF-A/mg/min
- Rate of N6-MF-A formation ([2]; 0.1 mM FFA): <18 fmol N ^6-MF-A/mg/min
- Rate of N6-MF-A formation ([2]; 1 mM FFA): <20 fmol N ^6-MF-A/mg/min
- Rate of N6-MF-A formation ([2]; 10 mM FFA): <44 fmol N ^6-MF-A/mg/min
- Rate of N6-MF-A formation ([3]; 0.1 mM FFA): <18 fmol N ^6-MF-A/mg/min
- Rate of N6-MF-A formation ([3]; 1 mM FFA): <20 fmol N ^6-MF-A/mg/min
- Rate of N6-MF-A formation ([3]; 10 mM FFA): 154 ± 2 fmol N ^6-MF-A/mg/min
